Values joined by “and” are separate entries in the source; they are usually repeats but may differ in a detail not shown here. Equal entries are not always repeated.
What was measured:
[1] = target: T1, native S. pasteurii CCM 2056 urease (Sporosarcina pasteurii, UniProt P41020); assay: Inhibition of purified native urease, indophenol (Berthelot) ammonia assay; assay type: biochemical; details: for Ki: purified native enzyme, EI dissociation constant from Lineweaver-Burke plots, urea up to 30 mM, 3 mM phosphate buffer, read-out: Ki [μM] (± SD); for α quantifier between ESI dissociation constant Ki* and EI dissociation constant Ki / type (mode) of inhibition: purified S. pasteurii urease
T1 construct: The S. pasteurii CCM 2056 cells were used as the source of a native enzyme; endogenous in cells; host or cells: S. pasteurii CCM 2056 culture; endogenous enzyme purified in house from the sonicated cell extract by five-step chromatography
T1 sequence (P41022 whole entry): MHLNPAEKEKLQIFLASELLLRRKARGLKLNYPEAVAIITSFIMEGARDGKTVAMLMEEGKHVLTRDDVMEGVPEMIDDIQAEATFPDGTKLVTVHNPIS
T1 sequence (P41021 whole entry, further chain): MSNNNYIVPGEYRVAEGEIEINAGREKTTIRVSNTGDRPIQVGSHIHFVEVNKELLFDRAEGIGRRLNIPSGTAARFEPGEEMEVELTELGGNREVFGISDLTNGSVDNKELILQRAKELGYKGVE
T1 sequence (P41020 whole entry): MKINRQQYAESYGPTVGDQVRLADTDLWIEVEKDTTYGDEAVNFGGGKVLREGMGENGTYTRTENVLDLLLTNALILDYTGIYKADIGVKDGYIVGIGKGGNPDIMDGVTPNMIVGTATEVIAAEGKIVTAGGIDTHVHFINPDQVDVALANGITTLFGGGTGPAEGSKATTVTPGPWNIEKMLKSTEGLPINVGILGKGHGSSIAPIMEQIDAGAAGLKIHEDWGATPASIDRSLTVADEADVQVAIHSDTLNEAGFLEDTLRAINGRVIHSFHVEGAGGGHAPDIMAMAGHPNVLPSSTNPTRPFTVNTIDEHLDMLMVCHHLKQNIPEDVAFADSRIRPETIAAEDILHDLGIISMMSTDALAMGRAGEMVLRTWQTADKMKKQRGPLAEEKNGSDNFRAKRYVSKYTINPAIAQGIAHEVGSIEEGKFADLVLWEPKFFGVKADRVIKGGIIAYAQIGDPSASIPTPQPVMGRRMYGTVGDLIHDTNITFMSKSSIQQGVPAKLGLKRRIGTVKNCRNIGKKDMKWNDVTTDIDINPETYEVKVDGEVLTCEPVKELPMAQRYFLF
Description: The kinetic properties of the compounds as potential urease inhibitors were evaluated against native enzyme purified from S. pasteurii CCM 2056 culture. Residual enzyme activity was expressed as ammonia release from urea followed quantitively using the Berthelot reaction. All of the studied structures were reversibly inhibitory, with dissociation constants ranging from submicromolar to moderate micromolar concentrations (Table 1). The α quantifier between the enzyme-substrate-inhibitor complex (ESI) dissociation constant Ki* and the EI dissociation constant Ki [drawing 1] was calculated to determine the influence of substrate binding on the stability of the EI complex. […] For modeled compounds 19, 16, and 29, the values of α were 152.01, 38.04, and 14.52, respectively. […] For comparison, the α value of compound 52 was 1.37.
The S. pasteurii CCM 2056 cells were used as the source of a native enzyme. The culture medium was made of 20 g/L yeast extract. One day after the inoculation, the medium was further supplemented with 1 mM NiCl2 and 1% urea. After 2 more days of growth, the cells were centrifuged and disintegrated via sonication. Enzyme purification from the cell extract was conducted using a five-step chromatographic method as previously reported.[50]
Inhibition of the purified urease was measured using the indophenol assay for ammonia concentration.[65] The kinetic assays in 3 mM phosphate buffer contained the purified enzyme, studied thiourea analogues, and a range of urea concentrations up to saturating 30 mM. Total progress curves were analyzed with the addition of the enzyme at the reaction start. Assays were terminated with the sequential addition of 100 μL of M1 ([…] sodium nitroprusside, 0.53 M phenol) and M2 (0.625 M sodium hydroxide, 47.1 mM sodium hypochlorite) solution to 50 μL of reaction mixture sample. After 15 min of color development, absorbance at 650 nm was measured. […] In order to verify the inhibition mode as well as calculate the dissociation constant for EI complex, Lineweaver–Burke curves were plotted (1/v = f(1/[S])). For noncompetitive or mixed inhibition mode, Ki was calculated from plots of the LB curves slope as a function of inhibitor concentration.

[2] = test system: live cells of S. pasteurii CCM 2056; assay: Whole-cell ureolysis: ammonia release from urea in live cells; assay type: cell-based, Sporosarcina pasteurii; details: Sporosarcina pasteurii, CCM2056; urea hydrolysis in live cells; 30 mM urea; 10 mM PBS; read-out: IC50 [μM] (± SD) S. pasteurii cells
[3] = test system: live cells of P. mirabilis PCM 543; assay: as above; assay type: cell-based, Proteus mirabilis; details: Proteus mirabilis, urea hydrolysis in live cells; 30 mM urea; 10 mM PBS; read-out: IC50 [μM] (± SD) P. mirabilis cells
Description: Proteus mirabilis PCM 543 was cultured as described for S. pasteurii except for nickel ions—0.3 mM NiCl2 was used in the growth medium. Cells harvested by centrifugation were resuspended in 10 mM PBS and used for urease activity measurements. Assays were conducted in 10 mM PBS containing 30 mM urea and different concentrations of urease inhibitors and ammonia quantified by indophenol assay.

SMILES | Ki [1] | other results
COc1ccc(-c2csc(NC(=S)NCc3ccccc3)n2)cc1 [Compound 50, 1-Benzyl-3-(4-(4-methoxyphenyl)thiazol-2-yl)thiourea] | 41.4 ± 3.73 µM | 
C/C(=N\NC(N)=S)c1ccccc1 [Compound 19, (E)-2-(1-Phenylethylidene)hydrazine-1-carbothioamide] | 0.39 µM and 0.391 µM | α quantifier between ESI dissociation constant Ki* and EI dissociation constant Ki [1]: 152.01; IC50 [2]: 194 ± 12.5 µM; IC50 [3]: 568 ± 47.7 µM
C/C(=N\NC(N)=S)c1ccc(O)cc1 [Compound 20, (E)-2-(1-(4-Hydroxyphenyl)ethylidene)hydrazine-1-carbothioamide] | 33.4 ± 2.61 µM | type (mode) of inhibition [1]: noncompetitive; IC50 [2]: 87.6 ± 9.07 µM; IC50 [3]: 513 ± 33.9 µM
Cc1ccc(/C=C/C(=N\NC(=S)NN)c2ccccc2)cc1 [Compound 30, N′-((1E,2E)-1-Phenyl-3-(p-tolyl)allylidene)hydrazinecarbothiohydrazide] | 59.5 ± 4.4 µM | IC50 [2]: 553 ± 27.8 µM
SC1=NC(c2ccccc2)=CC(c2ccccc2)N1 (centres unmarked) [Compound 37, 4,6-Diphenyl-3,4-dihydropyrimidine-2(1H)-thione] | 36.2 ± 5.2 µM | 
Cc1ccc(C2CC(c3ccccc3)=NN2C(N)=S)cc1 (centres unmarked) [Compound 33, 3-Phenyl-5-(p-tolyl)-4,5-dihydro-1H-pyrazole-1-carbothioamide] | 87.1 ± 9.29 µM | 
COc1ccc(C2=NN(C(N)=S)C(c3ccccc3)C2)c(OC)c1 (centres unmarked) [Compound 36, 3-(2,4-Dimethoxyphenyl)-5-phenyl-4,5-dihydro-1H-pyrazole-1-carbothioamide] | 57.7 ± 4.42 µM | 
COc1ccc(/C=N/NC(N)=S)cc1OC [Compound 18, (E)-2-(3,4-Dimethoxybenzylidene)hydrazine-1-carbothioamide] | 37.5 ± 4.79 µM | 
COc1ccc(C(/C=C/c2ccccc2)=N/NC(N)=S)c(OC)c1 [Compound 26, (E)-2-((E)-1-(2,4-Dimethoxyphenyl)-3-phenylallylidene)hydrazine-1-carbothioamide] | 3.02 ± 0.23 µM | type (mode) of inhibition [1]: noncompetitive; IC50 [2]: 134 ± 11.4 µM
NC(=S)N1N=C(c2ccccc2)CC1c1ccc(Cl)cc1 (centres unmarked) [Compound 34, 5-(4-Chlorophenyl)-3-phenyl-4,5-dihydro-1H-pyrazole-1-carbothioamide] | 30.5 ± 2.84 µM | 
COc1ccc(C2=CC(c3ccccc3)NC(=S)N2)c(OC)c1 (centres unmarked) [Compound 41, 6-(2,4-Dimethoxyphenyl)-4-phenyl-3,4-dihydropyrimidine-2(1H)-thione] | 47.7 ± 6.31 µM | 
Fc1ccc(C2C=C(c3ccccc3)NC(=S)N2)cc1 (centres unmarked) [Compound 40, 4-(4-Fluorophenyl)-6-phenyl-3,4-dihydropyrimidine-2(1H)-thione] | 5.55 ± 0.873 µM | 
NC(=S)N1N=C(c2ccccc2)CC1c1ccccc1 (centres unmarked) [Compound 32, 3,5-Diphenyl-4,5-dihydro-1H-pyrazole-1-carbothioamide] | 71.7 ± 8.26 µM | 
S=C1NC(c2ccccc2)=CC(c2ccc(Cl)cc2)N1 (centres unmarked) [Compound 39, 4-(4-Chlorophenyl)-6-phenyl-3,4-dihydropyrimidine-2(1H)-thione] | 30.2 ± 4.23 µM | 
NC(=S)N1N=C(c2ccccc2)CC1c1ccc(F)cc1 (centres unmarked) [Compound 35, 5-(4-Fluorophenyl)-3-phenyl-4,5-dihydro-1H-pyrazole-1-carbothioamide] | 46.5 ± 6.3 µM | 
NNC(=S)N/N=C(\C=C\c1ccc(Cl)cc1)c1ccccc1 [Compound 31, N′-((1E,2E)-3-(4-Chlorophenyl)-1-phenylallylidene)hydrazinecarbothiohydrazide] | 12.8 ± 1.54 µM | IC50 [2]: 132 ± 6.9 µM
Cc1ccc(C2C=C(c3ccccc3)NC(=S)N2)cc1 (centres unmarked) [Compound 38, 6-Phenyl-4-(p-tolyl)-3,4-dihydropyrimidine-2(1H)-thione] | 27.4 ± 3.47 µM | 
NNC(=S)N/N=C(\C=C\c1ccccc1)c1ccccc1 [Compound 29, N′-((1E,2E)-1,3-Diphenylallylidene)hydrazinecarbothiohydrazide] | 2.24 µM | α quantifier between ESI dissociation constant Ki* and EI dissociation constant Ki [1]: 14.52

Source: publication PMC10413841, “Exploration of Thiourea-Based Scaffolds for the Construction of Bacterial Ureases Inhibitors” (ACS Omega, 2023)
